Results on two compounds are retold here after patent publication US6489299B2, “Methods for treatment of multiple sclerosis using peptide analogues at position 91 of human myelin basic protein” (Stanford University Medical Center, priority 1994, dated 2002).

Data set [1] concerns lymph node cells (LNC) reactive to MBP (87-99). As to the kind of experiment: Antigen-specific lymph node cell proliferation assay. The data set is classed as cell-based, Lewis rat. Conditions: 10 μM peptide, 3 days, [3H]-thymidine; FIG. 4. The method, then: FIG. 4 is a graph displaying the proliferative response of MBP-reactive lymph node cells to position 91-substituted analogues. Two different substitutions were tested. The proliferative response of lymph node cells to 10 μM of MBP (87-99), motilin, A91 or K91 was determined. Proliferation is shown as counts per minute. BKG, no peptide added; 87-99, MBP (87-99); motilin, an unrelated peptide; A91, peptide analogue with alanine at position 91; K91, peptide analogue with D-lysine at position 91.
As an alternative to the use of T cell lines as described above, draining lymph node cells from Lewis rats immunized with MBP (87-99) may be used. […] Cultures are harvested on fiberglass filters and counted in a scintillation counter. Mean CPM and the standard error of the mean are calculated from data determined in triplicate cultures. […]
For the assay, 100 μl of the lymph node suspension was added to 96-well flat-bottom wells in the presence of an equal volume of medium containing 10 μM of various peptides (including: motilin as a negative control; MBP87-99; medium only, or alanine or D-amino acid substituted at position 91). […] The plates were then harvested with a Matrix filtermate harvester (Packard) and counted using an Automatic Direct Beta Counter (Packard). Mean cpm and the standard error of the mean were calculated from triplicate wells.

Data set [2] deals with anti MBP (87-99) T cell line L87-99. The data set is classed as cell-based, rat. The settings on record: all concentrations, 10^-4 μM to 10^-2 μM analogue; APC prepulsed with 0.2 μM native peptide; FIG. 5. The method, then: FIG. 5 is a graph illustrating the ability of alanine-substituted analogues to antagonize T cells. […] Results are shown as stimulation index ±SE.
The second or alternative assay is a competition assay for T cell proliferation. In this assay, antigen presenting spleen cells are first irradiated and then incubated with native MBP (87-99) peptide for 2-4 hours. These cells are then washed and further cultured with T cells reactive to MBP (87-99). Various concentrations of candidate peptide analogues are included in cultures for an additional 3 days. Following this incubation period, each culture is pulsed with 1 μCi of [^3H]-thymidine for an additional 12-18 hours. Cultures are then harvested on fiberglass filters and counted as above. Mean CPM and standard error of the mean are calculated from data determined in triplicate cultures. Peptide analogues which inhibit proliferation to approximately 25% at a concentration of 50 μM or greater are suitable for further screening.
T cell antagonism was detected in a prepulsed proliferation assay as described by De Magistris et al. (Cell […]:625, 1992) with minor modifications. […] The cultures were then harvested on fiberglass filters and the proliferative response expressed as CPM±SD or as stimulation index (mean CPM from test cultures divided by mean CPM from control cultures).

Data set [3] has as its system EAE. As to the kind of experiment: Reversal of EAE induced by adoptive transfer of L87-99 T cells. The data set is classed as in vivo, rat.
For data set [4], the system named is EAE. Conditions: rat, in vivo. On the procedure:
In addition, as a safety measure, but not essential to this invention, suitable peptide analogues may be tested for direct induction of EAE. As described in detail in Example 2, various amounts of peptide analogues are injected at the base of the tail of rats, and the rats examined daily for signs of EAE. A peptide analogue which is not considered to cause EAE has a mean cumulative score of less than or equal to 1 over seven days when 1 mg (5 mg/kg) in complete Freund's adjuvant is injected.
MBP peptides and analogues were dissolved in phosphate-buffered saline (PBS) and emulsified with an equal volume of incomplete Freund's adjuvant supplemented with 4 mg/ml heat-killed Mycobacterium tuberculosis H37Ra in oil (Difco Laboratories, Inc., Detroit, Mich.). Rats were immunized subcutaneously in the hind foot pads with 0.1 ml of the emulsion and were monitored for clinical signs daily by an observer blind to the treatment protocol. For intravenous injections MBP peptides and analogues were dissolved in normal saline. EAE was scored as follows: 0, clinically normal; 1, flaccid tail; 2, hind limb paralysis; 3, front and hind limb paralysis.
The ability of peptide analogues to cause EAE is assessed in vivo. Rats were injected with MBP (87-99) or (91K>A) peptide analogue as described in Example 2. Animals were monitored daily for evidence of EAE. Rats receiving MBP (87-99) had 100% incidence (18/18 rats) of EAE with a mean maximum clinical score of 2.4±0.2. In contrast, 0/12 rats receiving the peptide analogue (91k>A) had EAE.

For data set [5], the system named is EAE. As to the kind of experiment: Prevention of EAE by co-injection of the peptide analogue with an EAE-inducing peptide. It counts as in vivo, rat.
The subject of data set [6] is TNF-α production from draining lymph node cells. As to the kind of experiment: TNF-α production by draining lymph node cells (ELISA). The settings on record: all doses greater than 20 μM; supernatant after 24 hours; FIG. 7. The data set is classed as cell-based, rat. On the procedure:
(§1) FIG. 7 are a pair of graphs showing the amount of IFN-γ and TNF-α production from draining lymph node cells (DLNC). DLNC were stimulated with MBP (87-99) alone (●) or with the peptide analogue (91K>A) (▪).
(§2) Cytokine production in draining lymph node cells from rats injected with MBP (87-99) alone or with the peptide analogue (91K>A) was determined. IFN-γ and TNF-α production were measured.
(§3) Draining lymph node cells (10^7 cells/ml) were stimulated in vitro with different concentrations of MBP (87-99) or peptide analogue. Supernatants were collected after 24 and 48 hours. IFN-γ was determined after 48 hours by use of a rat IFN-γ ELISA kit (GIBCO BRL). TNF-α was measured after 24 hours by ELISA kit (Genzyme Corp., Cambridge, Mass.).
In general terms: An ELISA detects its analyte on a solid surface through an enzyme-linked reagent.

Data set [7] has as its system IFN-γ production from draining lymph node cells. As to the kind of experiment: IFN-γ production by draining lymph node cells (ELISA). It counts as cell-based, rat. The settings on record: all doses; supernatant after 48 hours; FIG. 7. On the procedure:
as §1, §2, §3

Data set [8] has as its system MBP specific rat T cell line (NBI). In words: Antigen-specific T cell line proliferation assay. It counts as cell-based. Conditions: three days, [3H]-thymidine; analogues at 20-120 μM; FIG. 3. On the procedure: FIG. 3 is a graph displaying the proliferative response of the T cell line NBI to position 91-substituted analogues. Ten different substitutions were tested. The proliferative response of NBI in response to concentrations of analogues ranging from 0 to 150 μM was determined. Proliferation is shown as counts per minute. Standard errors of the mean were less than ±10%. MBP 87-99; peptides from human myelin basic protein containing residues 87 to 99; K, lysine; R, arginine; N, asparagine; H, histidine; L, leucine; S, serine; G, glycine; k, D-lysine; E, glutamic acid; F, phenylalanine; and A, alanine.
In the direct proliferation assay, MBP (87-99) reactive T cell lines may be used as target cells. T cell lines are established from lymph nodes taken from rats injected with MBP (87-99). […] After 5 to 6 passages in this manner, the proliferative potential of the cell lines are determined. […] Cultures are harvested and incorporated counts determined. Mean CPM and standard error of the mean are calculated from triplicate cultures. […]
For this antigen-specific proliferation assay, T cell lines as established in Example 3 were used. […] Cultures were harvested on fiberglass filters and the proliferative response expressed as CPM±SD or as stimulation index (SI) (mean CPM from test cultures divided by mean CPM from control cultures).

[9] abbreviates: as Peptide 2, co-injected with Peptide 1 MBP(68-88), ratio 1:1.
[10] abbreviates: as Peptide 2, co-injected with Peptide 1 MBP(87-99), ratio 1:1, in complete Freund's adjuvant.

Read-outs that look alike come from different tables or passages of the source. A value given as a limit tells only on which side of the number the result lay.

As to `CC[C@H](C)[C@H](NC(=O)[C@H](CC(N)=O)NC(=O)[C@H](C)NC(=O)[C@H](Cc1ccccc1)NC(=O)[C@H](Cc1ccccc1)NC(=O)[C@H](Cc1c[nH]cn1)NC(=O)[C@@H](N)C(C)C)C(=O)N[C@H](C(=O)N[C@H](C(=O)N1CCC[C@H]1C(=O)N[C@@H](CCCNC(=N)N)C(=O)N[C@H](C(=O)N1CCC[C@H]1C(=O)O)[C@@H](C)O)[C@@H](C)O)C(C)C` [91K>A], the “proliferative response of MBP (87-99)-reactive lymph node cells (in words)” value in data set [1] is on record as “failed to respond as well”. For the same compound, in data set [2], the “antagonism of the response of L87-99 to native peptide (in words)” value is “effectively antagonize”. In data set [3] (after single injection (2 mg/ml) of soluble analogue), the “time to complete remission” value was no more than 36 h. For the same compound, the “rats going into complete remission without further signs of paralysis” value in data set [3] (single injection (2 mg/ml) of soluble analogue to rats with hind limb paralysis, 5 days after 10^7 L87-99 T cells, p<0.015) was “six out of six”. Further, in data set [4], the “EAE Incidence” value is listed as 0/12, the “EAE Mean Maximum Clinical Score” value amounted to 0 and the “incidence of EAE (rats with EAE / rats injected)” value is listed as 0/12. In data set [5] (setting [9]), the “EAE Incidence” value was 6/6 and the “EAE Mean Maximum Clinical Score” value was 3 ± 0. In data set [5] (setting [10]), the “EAE Incidence” value is recorded as 0/12 and the “EAE Mean Maximum Clinical Score” value was determined as 0. For the same compound, in data set [5] (co-immunization), the “inhibition of induction of EAE by MBP (68-88) (in words)” value is on record as “not inhibit induction of EAE” and the “inhibition of induction of EAE by MBP (87-99) (in words)” value was “could specifically inhibit induction of EAE”. The “TNF-α production (in words)” value in data set [6] is “marked decrease in cytokine production”. For the same compound, in data set [7], the “IFN-γ production (in words)” value is “marked decrease in cytokine production”.

On to `CC[C@H](C)[C@H](NC(=O)[C@@H]1CCCN1C(=O)[C@@H](NC(=O)[C@@H](N)Cc1ccccc1)C(C)C)C(=O)N[C@@H](Cc1ccccc1)C(=O)N[C@H](C(=O)N[C@@H](Cc1ccc(O)cc1)C(=O)NCC(=O)N[C@@H](CCC(=O)O)C(=O)N[C@@H](CC(C)C)C(=O)N[C@@H](CCC(N)=O)C(=O)N[C@@H](CCCNC(=N)N)C(=O)N[C@@H](CCSC)C(=O)N[C@@H](CCC(N)=O)C(=O)N[C@@H](CCC(=O)O)C(=O)N[C@@H](CCCCN)C(=O)N[C@@H](CCC(=O)O)C(=O)N[C@@H](CCCNC(=N)N)C(=O)N[C@@H](CC(N)=O)C(=O)N[C@@H](CCCCN)C(=O)NCC(=O)N[C@@H](CCC(N)=O)C(=O)O)[C@@H](C)O` [motilin, reference compound], for which, in data set [1], the “proliferative response of MBP (87-99)-reactive lymph node cells (in words)” value is given as “failed to respond as well”. Also, in data set [8], the “proliferation of the MBP specific rat T cell line (in words)” value is “does not stimulate proliferation at any dose”.
